In US6479265B1, “Catalytic antibodies which hydrolyze primary amides and methods for eliciting and use of such antibodies” (Igen International, Inc., priority 1993, dated 2002):

Tested on: 13D11
Assay: Inhibition of hydrolysis of 10 by 13D11 (secondary screening)
Assay type: biochemical, mice
Settings: buffer tried as an alternative to Tris
Method: Antibody 13D11 (14.5 μM) was re-screened for activity toward 10 (nominally 500 μM) in the absence and presence of 63 μM (RT-2 hapten)(D/L mixture).
Until this point, 13D11 antibody had been purified by Protein A and DEAE chromatography. To determine whether the activity toward 10 was due to a contaminating enzyme, 13D11 was further purified on a Mono Q column (Pharmacia) by FPLC.

O=S(=O)(O)CCNC1CCCCC1 [CHES]
inhibition of the hydrolysis of 10 by 13D11: found to inhibit
